Tests used:
T47D cells = assay: Cellular growth inhibition assay for T47D cells, CellTiter-Glo; format: cell-based, human; details: 72 hours treatment, CellTiter-Glo 2.0 cell viability
In short: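 Luminescence from CellTiter-Glo 2.0 after 72 h of compound exposure gives the viability signal. Cells grew in insulin-supplemented (0.2 units/mL) DMEM with 10% FBS and were treated one day after seeding at 0.5% DMSO. GI50 values come from four-parameter nonlinear regression.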

[1] = test system: T-Rex 293 cell line SC3 cells lacking increased expression of androgen receptor protein; assay: Cellular growth inhibition, T-Rex 293 SC3 cells without doxycycline, CellTiter-Glo; format: cell-based; details: T-Rex 293 SC3 cells not exposed to doxycycline, CellTiter-Glo 2.0
In short: (§1)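 GI50 came from a four-parameter fit of CellTiter-Glo 2.0 luminescence after 72 h compound exposure (0.5% DMSO, 37 °C), dosing 24 h post-seeding. SC3 clone cells (2500/well), transfected with wild-type androgen receptor, grew in charcoal-stripped serum medium lacking phenol red, induced with 10 ng/mL doxycycline or left uninduced.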

[2] = test system: T-Rex 293 cell line SC3 cells having increased expression of androgen receptor protein due to exposure to doxycycline; assay: Cellular growth inhibition, T-Rex 293 SC3 cells with doxycycline (androgen receptor induced), CellTiter-Glo; format: cell-based; details: T-Rex 293 SC3 cells with 10 ng/mL doxycycline (increased androgen receptor expression)
In short: as §1

VCaP cells = assay: Cellular growth inhibition assay for VCaP cells, CellTiter-Glo; format: cell-based, human; details: 72 hours treatment, CellTiter-Glo 2.0
In short: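 GI50 values come from four-parameter curve fits of luminescence data normalized to a zero baseline. Compound, in medium with 0.5% DMSO, was added one day after plating and left for 72 h before CellTiter-Glo 2.0 addition.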

Structure (SMILES) | GI50 (T47D cells; Homo sapiens, T47D, 72 h) | GI50 ([1]; 72 h) | GI50 ([2]; 72 h) | GI50 (VCaP cells; Homo sapiens, VCaP, 72 h) | GI50 (T47D cells) | GI50 ([1]; 72 hours) | GI50 ([2]; 72 hours) | GI50 (VCaP cells)
Cc1sc2c(c1C)C(c1ccc(C[C@@H]3CCCN(c4ncc(C(=O)N[C@H]5C(C)(C)[C@H](Oc6ccc(C#N)c(Cl)c6)C5(C)C)cn4)C3)cc1)=N[C@@H](Cc1ncco1)c1nnc(C)n1-2 [Compound I-296] | < 500 nM | 500 to 1500 nM | < 500 nM | < 500 nM | – | – | – | –
Cc1sc2c(c1C)C(c1ccc(C[C@H]3CC[C@@]4(C3)CN(c3ncc(C(=O)N[C@H]5C(C)(C)[C@H](Oc6ccc(C#N)c(Cl)c6)C5(C)C)cn3)CCO4)cc1)=N[C@@H](Cc1ncco1)c1nnc(C)n1-2 [Compound I-311] | < 500 nM | < 500 nM | < 500 nM | < 500 nM | – | – | – | –
Cc1sc2c(c1C)C(c1ccc(OCCOC3CCN(c4ncc(C(=O)N[C@H]5C(C)(C)[C@H](Oc6ccc(C#N)c(Cl)c6)C5(C)C)cn4)CC3)cc1)=N[C@@H](CC(=O)NC(C)C)c1nnc(C)n1-2 [Compound I-65] | 500 to 1500 nM | < 500 nM | < 500 nM | < 500 nM | – | – | – | –
COC[C@@H]1N=C(c2ccc(OC3CC4(CCCN(c5ncc(C(=O)N[C@H]6C(C)(C)[C@H](Oc7ccc(C#N)c(Cl)c7)C6(C)C)cn5)C4)C3)cc2)c2c(sc(C)c2C)-n2c(C)nnc21 [Compound I-568] | < 500 nM | > 3000 nM | < 500 nM | < 500 nM | – | – | – | –
Cc1sc2c(c1C)C(c1ccc(C=C3CC4(CCCN(c5ncc(C(=O)N[C@H]6C(C)(C)[C@H](Oc7ccc(C#N)c(Cl)c7)C6(C)C)cn5)C4)C3)cc1)=N[C@@H](Cc1ncco1)c1nnc(C)n1-2 [Compound I-225, N-[3-(3-chloro-4-cyano-phenoxy)-2,2,4,4-tetramethyl-cyclobutyl]-2-[2-[[4-[(9S)-4,5,13-trimethyl-9-(oxazol-2-ylmethyl)-3-thia-1,8,11,12-tetrazatricyclo[8.3.0.02,6]trideca-2(6),4,7,10,12-pentaen-7-yl]phenyl]methylene]-6-azaspiro[3.5]nonan-6-yl]pyrimidine-5-carboxamide] | 500 to 1500 nM | 500 to 1500 nM | < 500 nM | 1500 to 3000 nM | – | – | – | –
Cc1sc2c(c1C)C(c1ccc(O[C@H]3CO[C@]4(CCCN(c5ncc(C(=O)N[C@H]6C(C)(C)[C@H](Oc7ccc(C#N)c(Cl)c7)C6(C)C)cn5)C4)C3)cc1)=N[C@@H](Cc1ncco1)c1nnc(C)n1-2 [Compound I-192] | 500 to 1500 nM | 500 to 1500 nM | < 500 nM | 500 to 1500 nM | – | – | – | –
CC[C@@H]1N=C(c2ccc(CC3CCC4(C3)CN(c3ncc(C(=O)N[C@H]5C(C)(C)[C@H](Oc6ccc(C#N)c(Cl)c6)C5(C)C)cn3)CCO4)cc2)c2c(sc(C)c2C)-n2c(C)nnc21 (stereo partly shown) [Compound I-614] | – | – | – | – | < 500 nM | > 3000 nM | < 500 nM | < 500 nM
Cc1sc2c(c1C)C(c1ccc(-n3ncc(C4CCN(c5ncc(C(=O)N[C@H]6C(C)(C)[C@H](Oc7ccc(C#N)c(Cl)c7)C6(C)C)cn5)CC4)n3)cc1)=N[C@@H](Cc1ncco1)c1nnc(C)n1-2 [Compound I-430] | < 500 nM | < 500 nM | < 500 nM | < 500 nM | – | – | – | –
Cc1sc2c(c1C)C(c1ccc(O[C@H]3CC[C@]4(CCN(c5ncc(C(=O)N[C@H]6C(C)(C)[C@H](Oc7ccc(C#N)c(Cl)c7)C6(C)C)cn5)C4)CC3)cc1)=N[C@@H](Cc1ncco1)c1nnc(C)n1-2 [Compound I-178] | < 500 nM | < 500 nM | < 500 nM | < 500 nM | – | – | – | –
Cc1sc2c(c1C)C(c1ccc(NCC3CCCCN3c3ncc(C(=O)N[C@H]4C(C)(C)[C@H](Oc5ccc(C#N)c(Cl)c5)C4(C)C)cn3)cc1)=NC(Cc1ncco1)c1nnc(C)n1-2 (stereo partly shown) [Compound I-638] | < 500 nM | < 500 nM | < 500 nM | < 500 nM | – | – | – | –
Cc1sc2c(c1C)C(c1ccc(OC[C@H]3C[C@]4(CCCN(c5ncc(C(=O)N[C@H]6C(C)(C)[C@H](Oc7ccc(C#N)c(Cl)c7)C6(C)C)cn5)C4)C3)cc1)=N[C@@H](Cc1ncco1)c1nnc(C)n1-2 [Compound I-233] | < 500 nM | 1500 to 3000 nM | < 500 nM | 500 to 1500 nM | – | – | – | –
Cc1sc2c(c1C)C(c1ccc([C@H]3CC[C@@]4(C3)CN(c3ncc(C(=O)N[C@H]5C(C)(C)[C@H](Oc6ccc(C#N)c(Cl)c6)C5(C)C)cn3)CCO4)cc1)=N[C@@H](Cc1ncco1)c1nnc(C)n1-2 [Compound I-428] | > 3000 nM | > 3000 nM | < 500 nM | > 3000 nM | – | – | – | –
Cc1sc2c(c1C)C(c1ccc(C(=O)N(C)CCCc3ncc(C(=O)N[C@H]4C(C)(C)[C@H](Oc5ccc(C#N)c(Cl)c5)C4(C)C)cn3)cc1)=N[C@H](Cc1ncco1)c1nnc(C)n1-2 [Compound I-343] | 1500 to 3000 nM | > 3000 nM | 1500 to 3000 nM | 1500 to 3000 nM | – | – | – | –
Cc1sc2c(c1C)C(c1ccc(O[C@H]3C[C@@]4(CCCN(c5ncc(C(=O)N[C@H]6C(C)(C)[C@H](Oc7ccc(C#N)c(Cl)c7)C6(C)C)cn5)C4)C3)cc1)=N[C@@H](C)c1nnc(C)n1-2 [Compound I-392] | 500 to 1500 nM | > 3000 nM | < 500 nM | 500 to 1500 nM | – | – | – | –
Cc1sc2c(c1C)C(c1ccc(NCC(=O)N3CCC(c4ncc(C(=O)N[C@H]5C(C)(C)[C@H](Oc6ccc(C#N)c(Cl)c6)C5(C)C)cn4)CC3)cc1)=N[C@@H](Cc1ncco1)c1nnc(C)n1-2 [Compound I-274] | 500 to 1500 nM | > 3000 nM | < 500 nM | > 3000 nM | – | – | – | –
Cc1sc2c(c1C)C(c1ccc(CC3CC4(CCN(c5ccc(C(=O)N[C@H]6C(C)(C)[C@H](Oc7ccc(C#N)c(Cl)c7)C6(C)C)nc5)CC4)C3)cc1)=N[C@@H](C)c1nnc(C)n1-2 [Compound I-447] | < 500 nM | > 3000 nM | < 500 nM | 500 to 1500 nM | – | – | – | –
Cc1sc2c(c1C)C(c1ccc(-c3cc(OC4CCN(c5ncc(C(=O)N[C@H]6C(C)(C)[C@H](Oc7ccc(C#N)c(Cl)c7)C6(C)C)cn5)CC4)ns3)cc1)=N[C@@H](Cc1ncco1)c1nnc(C)n1-2 [Compound I-389] | < 500 nM | > 3000 nM | < 500 nM | 500 to 1500 nM | – | – | – | –
Cc1sc2c(c1C)C(c1ccc(C3(N(C)CC4CCN(c5ncc(C(=O)N[C@H]6C(C)(C)[C@H](Oc7ccc(C#N)c(Cl)c7)C6(C)C)cn5)CC4)COC3)cc1)=N[C@@H](C)c1nnc(C)n1-2 [Compound I-377] | > 3000 nM | > 3000 nM | > 3000 nM | > 3000 nM | – | – | – | –
Cc1noc2c1-c1ccccc1C(c1ccc(OC3CC4(C3)CN(c3ncc(C(=O)N[C@H]5C(C)(C)[C@H](Oc6ccc(C#N)c(Cl)c6)C5(C)C)cn3)CCO4)cc1)=N[C@H]2Cc1ncco1 [Compound I-221, N-[3-(3-chloro-4-cyano-phenoxy)-2,2,4,4-tetramethyl-cyclobutyl]-2-[2-[4-[(4S)-1-methyl-4-(oxazol-2-ylmethyl)-4H-isoxazolo[5,4-d][2]benzazepin-6-yl]phenoxy]-5-oxa-8-azaspiro[3.5]nonan-8-yl]pyrimidine-5-carboxamide] | > 3000 nM | > 3000 nM | < 500 nM | > 3000 nM | – | – | – | –
Cc1sc2c(c1C)C(c1ccc(CCCOC3CCN(c4ncc(C(=O)N[C@H]5C(C)(C)[C@H](Oc6ccc(C#N)c(Cl)c6)C5(C)C)cn4)CC3)cc1)=N[C@H](Cc1ccncc1)c1nnc(C)n1-2 [Compound I-216] | > 3000 nM | > 3000 nM | < 500 nM | < 500 nM | – | – | – | –
Cc1sc2c(c1C)C(c1ccc(C(C)(C)N3CC4(CCN(c5ncc(C(=O)N[C@H]6C(C)(C)[C@H](Oc7ccc(C#N)c(Cl)c7)C6(C)C)cn5)CC4)C3)cc1)=N[C@@H](Cc1ncco1)c1nnc(C)n1-2 [Compound I-438] | – | 1500 to 3000 nM | – | – | > 3000 nM | – | < 500 nM | 500 to 1500 nM
Cc1sc2c(c1C)C(c1ccc(O[C@H]3C[C@]4(CCCN(c5ncc(C(=O)N[C@H]6C(C)(C)[C@H](Oc7ccc(C#N)c(Cl)c7)C6(C)C)cn5)C4)C3)cc1)=N[C@@H](C)c1nnc(C)n1-2 [Compound I-410] | > 3000 nM | > 3000 nM | < 500 nM | > 3000 nM | – | – | – | –
